Test results as given in PubChem BioAssay (NCI).
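Tested at 5 concentrations; 48 h exposure; 96-well plates; endpoints linearly interpolated, else capped at highest concentration. TGI: total growth inhibition.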

Experiments:
Assay in all cases: NCI tumour cell line growth inhibition, 48 h
[1] = test system: MALME-3M melanoma
[2] = test system: SK-OV-3 ovarian
[3] = test system: MDA-MB-435
[4] = test system: RPMI-8226 leukemia
[5] = test system: SF-268 CNS
[6] = test system: A549 NSCLC
[7] = test system: PC-3 prostate
[8] = test system: DU-145 prostate
[9] = test system: K-562 leukemia
[10] = test system: T-47D breast

Compound	TGI [1] [µM]	TGI [2] [µM]	TGI [3] [µM]	TGI [4] [µM]	TGI [5] [µM]	TGI [6] [µM]	TGI [7] [µM]	TGI [8] [µM]	TGI [9] [µM]	TGI [10] [µM]
CC(=O)Nc1c(S(=O)(=O)c2ccccc2)c(C)c(C)n1Cc1ccccc1	> 100	> 100	> 100	> 100	> 100	> 100	> 100	> 100	> 100	
Clc1ccc(-c2cn3c(nc4ccccc43)c(/C=C/c3ccco3)n2)cc1	> 100	> 100	> 100	39.8	> 100	> 100		> 100	> 100	> 100
CC(=O)Nc1ccc2[nH]c(C(=O)N3CC(CCl)c4c3cc([N+](=O)[O-])c3ccccc43)cc2c1 (configuration not stated)		> 65.1	> 100	> 27.8	> 57.1	1.15	> 100	> 100	> 45.8	9.92
CSc1ccn(C2CC(F)C(CO)O2)c(=O)n1 (configuration not stated)	> 100	> 100	> 100		> 100	> 100	> 100	> 100	> 100	> 100
O=C1C(Cl)=C(N(C(=O)c2ccccc2)C(=O)c2ccccc2)C(=O)c2ccccc21		> 100	32.4	8.87	21.7	> 100	> 100	> 100	20.6	32.3
O=C(NC(=O)c1cc(-c2ccccc2)n[nH]1)c1ccccc1		> 100	> 100		> 100	> 100	> 100	> 100	> 100	> 100
CC(=O)Oc1c(-c2ccccc2)sc2ccccc12	37.2		59	24.8	71.2	37.9	97.5	27.9	36.2	44.5
O=C(CSc1nc(-c2ccccc2)c(-c2ccccc2)[nH]1)N/N=C/c1ccc(O)cc1	52.5	65.2		60.6	88.5	69.5			> 100	
Cc1sc2c(c1C)/C(=N\O)c1cccn1-2	> 100	> 100	> 100	> 100	> 100	> 100	> 100	> 100		> 100
C=C1C(O)C[C@H](OC(C)=O)[C@]2(C)C1C(OC(C)=O)[C@]1(C(C)(C)O)CC(O)C(C)=C1[C@@H](OC(=O)c1ccccc1)C2OC(C)=O (some centres not stated)		> 10	> 10	> 10	> 10	> 10	> 10	> 10	> 10	> 10
COc1ccc([C@@H]2CC(=O)N2)cc1	> 100	> 100		> 100	> 100	> 100			> 100	
COC1=CC2(CC(OC)=C1OC)OC21COc2ccccc2C1=O (configuration not stated)	> 100	> 100	> 100	> 100	> 100	> 100	> 100		> 100	> 100
COc1ccccc1NC(=O)CC(=O)N1N=C(N2c3ccccc3Sc3ccccc32)CC1c1ccccc1 (configuration not stated)		> 100	> 100	> 100	> 100	> 100	> 100	> 100	> 100	> 100
Nc1nc(Cl)cc(NC2(CO)CCC2)n1	> 100		> 100	> 100	> 100	> 100	> 100	> 100	> 100	> 100
COc1cc(OC)c2c3c(OC)cc(OC)c4c(=O)c(O)c(C[C@@H](C)O)c(c5c(C[C@@H](C)O)c(O)c(=O)c1c25)c43		> 100	32.1		70.4	> 100		> 100		44.5
O=C(c1ccccc1)C1S(=O)(=O)OCCOS1(=O)=O	> 100	> 100		> 100	> 100	> 100			> 100	
Cc1cc2c(C)n(Cc3ccccc3Cl)nc2c(C(=O)O)c1C	> 100	> 100		> 100	> 100	> 100				
Cc1n[nH]c(=O)n1/N=C\c1ccccc1	> 100		> 100	> 100	> 100	> 100	> 100	> 100	> 100	
C/C=C1\CN(C(=O)OC(C)(C)C)C1C(=O)OC(C)(C)C (configuration not stated)	> 100	> 100	> 100	> 100	> 100	> 100	> 100		> 100	
CCOC(=O)Nc1ccc2c(c1)c(CCCCCCc1nc3ccccc3c3ccc(NC(=O)OCC)cc13)nc1ccccc12		85.1	> 100	> 100	74.9	> 100	> 100	> 100	> 100	> 100
c1csc(-c2ccsc2-c2cccs2)c1		> 100	53.7	66.8	> 100	61		> 100		> 100
O=C1N2Cc3c4ccc5c3CN3C(=O)N6Cc7c(ccc(c7CN1C6(c1ccccc1)C23c1ccccc1)OCCOCCNCCOCCO4)OCCOCCNCCOCCO5 (configuration not stated)	59.6	> 100		92.2	> 100	> 100			> 100	
CC(=O)NC(C)(C)C1CCC(C)=C(c2ccccc2)C1 (configuration not stated)		> 100	> 100		> 100	> 100	> 100	> 100	> 100	> 100
CC(C)=CCC/C(C)=C/COc1c2ccoc2cc2oc(=O)ccc12	99.6	82.6	> 100	42.1	> 100	> 100	> 100		> 100	> 100
COCN1COCN=C1NC#N	> 100	> 100		> 100	> 100	> 100			> 100	
